Consider three compounds from ChEMBL document CHEMBL4813979.

For assay [1], the system named is Mus musculus. The assay is described as follows: Anti-colitis activity against DSS-induced BALB/c mouse model of subchronic relapsing colitis assessed as effect on colon length at 100 mg/kg/day, po administered for 7 days in second week during 2 weeks DSS challenge and measured at the end of 2nd week. It is filed as functional, organism-based. The conditions noted are these: time 7.0 day.

Assay [2] deals with Mus musculus. Put plainly: Anti-colitis activity against DSS-induced BALB/c mouse model of subchronic relapsing colitis assessed as increase in softening of feces at 100 mg/kg/day, po administered for 7 days in second week during 2 weeks DSS challenge and measured at the end of 2nd week. The format is functional, organism-based. The note with it: time 7.0 day.
Assay [3] concerns Mus musculus. Put plainly: Anti-colitis activity against DSS-induced BALB/c mouse model of subchronic relapsing colitis assessed as decrease in colon weight to length ratio at 100 mg/kg/day, po administered for 7 days in second week during 2 weeks DSS challenge and measured at the end of 2nd week. The format is functional, organism-based. The note with it: time 7.0 day.
Assay [4] relates to Mus musculus. The assay is described as follows: Anti-colitis activity against DSS-induced BALB/c mouse model of subchronic relapsing colitis assessed as increase in body weight at 100 mg/kg/day, po administered for 7 days in second week during 2 weeks DSS challenge and measured at the end of 2nd week. The note with it: time 7.0 day. It is filed as functional, organism-based.

Assay [5] has as its system Mus musculus. Put plainly: Anti-colitis activity against DSS-induced BALB/c mouse model of subchronic relapsing colitis assessed as reduction in fecal blood at 100 mg/kg/day, po administered for 7 days in second week during 2 weeks DSS challenge and measured at the end of 2nd week. It is filed as functional, organism-based. The conditions noted are these: time 7.0 day.

The test system of assay [6] is Mus musculus. Put plainly: Anti-colitis activity against DSS-induced BALB/c mouse model of subchronic relapsing colitis assessed as reduction in fecal blood at 100 mg/kg/day, ip administered on days 1 and 3 of second week during 2 weeks DSS challenge and measured at the end of 2nd week. The format is functional, organism-based. The note with it: time 1.0 weeks.
Assay [7] has as its system Mus musculus. The assay is described as follows: Anti-colitis activity against DSS-induced BALB/c mouse model of subchronic relapsing colitis assessed as effect on colon length at 100 mg/kg/day, ip administered on days 1 and 3 of second week during 2 weeks DSS challenge and measured at the end of 2nd week. The format is functional, organism-based. The note with it: time 1.0 weeks.

In assay [8] the test system is Mus musculus. Put plainly: Anti-colitis activity against DSS-induced BALB/c mouse model of subchronic relapsing colitis assessed as increase in softening of feces at 100 mg/kg/day, ip administered on days 1 and 3 of second week during 2 weeks DSS challenge and measured at the end of 2nd week. It is filed as functional, organism-based. The conditions noted are these: time 1.0 weeks.

Assay [9] has as its system Mus musculus. Put plainly: Anti-colitis activity against DSS-induced BALB/c mouse model of subchronic relapsing colitis assessed as increase in body weight at 100 mg/kg/day, ip administered on days 1 and 3 of second week during 2 weeks DSS challenge and measured at the end of 2nd week. The format is functional, organism-based. The conditions noted are these: time 1.0 weeks.

The target of assay [10] is Glycogen synthase kinase-3 beta (Mus musculus) (UniProt Q9WV60). The assay is described as follows: Inhibition of GSK3-beta in mouse J774.1 cells assessed as reduction in LPS/IFN-gamma-induced NF-kappaB expression at 10 uM measured within 15 mins by Western blot analysis. The format is cell-based. (In general: A western blot detects proteins with antibodies after separation by electrophoresis.)

Active and inactive are the calls of the source. The rule behind the calls is not given here.

Glycogen synthase kinase-3 beta (Mus musculus), sequence (Q9WV60 whole entry, looked up): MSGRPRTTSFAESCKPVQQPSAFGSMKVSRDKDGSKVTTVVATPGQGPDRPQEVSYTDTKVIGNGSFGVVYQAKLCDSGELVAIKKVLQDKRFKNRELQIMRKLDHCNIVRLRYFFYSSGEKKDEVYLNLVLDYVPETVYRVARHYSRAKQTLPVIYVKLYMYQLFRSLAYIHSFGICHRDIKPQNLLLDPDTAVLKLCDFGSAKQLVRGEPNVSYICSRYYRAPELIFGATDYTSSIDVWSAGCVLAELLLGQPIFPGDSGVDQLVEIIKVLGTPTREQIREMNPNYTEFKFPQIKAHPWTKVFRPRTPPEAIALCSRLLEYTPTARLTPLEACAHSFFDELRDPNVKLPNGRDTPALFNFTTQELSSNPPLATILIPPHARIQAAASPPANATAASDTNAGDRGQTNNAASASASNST

For `O=C(O)c1cc(/N=N/c2ccc(S(=O)(=O)Nc3ccccn3)cc2)ccc1O`, the outcome in [1] and in assay [4] was inactive. Besides, the result in [2], in assay [3] and in assay [5] was Active.

Regarding `S=C(S)N1CCCC1`, the result in [6], in assay [8] and in assay [9] was Active. Besides, the outcome in assay [7] was inactive.

Consider `C[S+]([O-])CCCCCCN=C=S` (stereo not given), for which the inhibition entry in [10] is “Active”.
